Laboratory results as given in patent US20060100431A1, “Biologically active compounds” (Amura Therapeutics Limited, priority 2002, published 2006).

Columns and labels:
Wild-type cruzipain = Wild-type cruzipain (Trypanosoma cruzi, UniProt P25779); experiment: Trypanosoma cruzi cruzipain peptidase activity assay (Ki); type: biochemical; details: read-out: Ki, inhibitors of cruzain and cruzipains
How it was run: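 Native cruzipain from T. cruzi Dm28 epimastigotes, 2.5 nM, in 100 mM sodium phosphate pH 6.75 with 1 mM EDTA and 10 mM L-cysteine, 25 °C, DMSO <1%. Rates taken from continuous fluorogenic substrate read; Ki by regression assuming reversible pure-competitive inhibition.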

CPB2.8ΔCTE = biological target: T1, CPB2.8ΔCTE (Leishmania mexicana, UniProt P36400); experiment: Leishmania mexicana cysteine protease B (CPB) peptidase activity assay (Ki); type: biochemical; details: Ki, inhibitors of Leismania mexicana CPB protease
T1 construct: Wild-type recombinant CPB without the C-terminal extention (i.e. CPB2.8ΔCTE); Dr. Jeremy Mottram (Wellcome Centre for Molecular Parasitology, University of Glasgow)
Method: Unless otherwise stated, all general chemicals and biochemicals were purchased from either the Sigma Chemical Company, Poole, Dorset, U.K or from Fisher Scientific UK, Loughborough, Leicestershire, U.K. Absorbance assays were carried out in flat-bottomed 96-well plates (Spectra; Greiner Bio-One Ltd., Stonehouse, Gloucestershire, U.K.) using a SpectraMax PLUS384 plate reader (Molecular Devices, Crawley, U.K.). Fluorescence high throughput assays were carried out in either 384-well microtitre plates (Corning Costar 3705 plates, Fisher Scientific) or 96-well ‘U’ bottomed Microfluor W1 microtitre plates (Thermo Labsystems, Ashford, Middlesex, U.K.). Fluorescence assays were monitored using a SpectraMax Gemini fluorescence plate reader (Molecular Devices). For substrates employing either a 7-amino-4-methylcoumarin (AMC) or a 7-amino-4-trifluoromethylcoumarin (AFC) fluorophore, assays were monitored at an excitation wavelength of 365 nm and an emission wavelength of 450 nm and the fluorescence plate reader calibrated with AMC. For substrates employing a 3-amino-benzoyl (Abz) fluorophore, assays were monitored at an excitation wavelength of 310 nm and an emission wavelength of 445 nm; the fluorescence plate reader calibrated with 3-amino-benzamide (Fluka). Unless otherwise indicated, all the peptidase substrates were purchased from Bachem UK, St Helens, Merseyside, UK. Substrates utilizing fluorescence resonance energy transfer methodology (i.e. FRET-based substrates) were synthesized at Incenta Limited using published methods (Atherton & Sheppard, Solid Phase Peptide Synthesis, IRL Press, Oxford, U.K, 1989) and employed Abz (2-aminobenzoyl) as the fluorescence donor and 3-nitro-tyrosine [Tyr(NO2)] as the fluorescence quencher (Meldal, M. and Breddam, K., Anal. Biochem, 195, 141-147, 1991). Hydroxyethylpiperazine ethanesulfonate (HEPES), tris-hydroxylmethyl aminomethane (tris) base, bis-tris-propane and all the biological detergents (e.g. CHAPS, zwittergents, etc.) were purchased from CN Biosciences UK, Beeston, Nottinghamshire, U.K. Glycerol was purchased from Amersham Pharmacia Biotech, Little Chalfont, Buckinghamshire, U.K. Stock solutions of substrate or inhibitor were made up to 10 mM in 100% dimethylsulfoxide (DMSO) (Rathburns, Glasgow, U.K.) and diluted as appropriately required. In all cases the DMSO concentration in the assays was maintained at less than 1% (vol./vol.).
Assay protocols were based on literature precedent (Table 4; Barrett, A. J., Rawlings, N. D. and Woessner, J. F., 1998, Handbook of Proteolytic Enzymes, Academic Press, London and references therein) and modified as required to suit local assay protocols. Enzyme was added as required to initiate the reaction and the activity, as judged by the change in fluorescence upon conversion of substrate to product, was monitored over time. All assays were carried out at 25±1° C.
Wild-type recombinant CPB without the C-terminal extention (i.e. CPB2.8ΔCTE; Sanderson, S. J., et. al., Biochem. J., 347, 383-388, 2000) was obtained from Dr. Jeremy Mottram (Wellcome Centre for Molecular Parasitology, The Anderson College, University of Glasgow, Glasgow, U.K.). Activity assays were carried out in 100 mM sodium acetate; pH 5.5 containing 1 mM EDTA; 200 mM NaCl and 10 mM DTT (Alves, L. C., et. al., Mol. Biochem. Parasitol, 116, 1-9, 2001) using 0.25 nM enzyme. […] The rate of conversion of substrate to product was derived from the slope of the increase in fluorescence monitored continuously over time.
The apparent inhibition constant (Ki) for each compound was determined on the basis that inhibition was reversible and occurred by a pure-competitive mechanism. The Ki values were calculated, from the dependence of enzyme activity as a function of inhibitor concentration, by direct regression analysis (Prism v 3.02) using Equation 2 (Cornish-Bowden, A., 1995.). [formula]

Chain of Wild-type cruzipain (P25779 whole entry): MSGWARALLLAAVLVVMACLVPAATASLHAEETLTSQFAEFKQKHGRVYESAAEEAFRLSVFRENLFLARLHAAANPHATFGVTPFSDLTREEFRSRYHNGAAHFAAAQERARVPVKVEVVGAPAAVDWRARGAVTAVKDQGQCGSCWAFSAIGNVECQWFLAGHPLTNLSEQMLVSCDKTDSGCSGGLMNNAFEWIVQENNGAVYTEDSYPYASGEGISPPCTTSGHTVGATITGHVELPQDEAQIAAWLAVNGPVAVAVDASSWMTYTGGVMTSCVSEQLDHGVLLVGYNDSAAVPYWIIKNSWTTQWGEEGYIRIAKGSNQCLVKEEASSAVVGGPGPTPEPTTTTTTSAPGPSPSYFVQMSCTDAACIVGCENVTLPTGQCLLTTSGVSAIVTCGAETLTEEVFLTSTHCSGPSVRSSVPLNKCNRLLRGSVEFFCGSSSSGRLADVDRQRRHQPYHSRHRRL
T1 sequence (P36400 126-343, stated change not applied): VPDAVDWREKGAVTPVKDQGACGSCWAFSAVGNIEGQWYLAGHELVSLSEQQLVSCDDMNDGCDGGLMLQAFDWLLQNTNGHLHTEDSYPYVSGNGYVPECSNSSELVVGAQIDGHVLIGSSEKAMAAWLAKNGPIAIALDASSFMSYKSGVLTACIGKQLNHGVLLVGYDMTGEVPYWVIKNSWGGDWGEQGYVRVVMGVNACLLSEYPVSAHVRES

Row | Compound | Ki (Wild-type cruzipain) [µM] | Ki (CPB2.8ΔCTE) [µM]
1 | CC(C)C[C@H](NC(=O)c1ccc(N(C)C)cc1)C(=O)N1CC[C@@H]2[C@H]1C(=O)CN2C(=O)c1ccc(OC(F)(F)F)cc1 [Example 71, (3aR,6aS)-4-Dimethylamino-N-{(1S)-3-methyl-1-[6-oxo-(4-trifluoromethoxy-benzoyl)-hexahydro-pyrrolo[3,2-b]pyrrole-1-carbonyl]-butyl}-benzamide] | < 5 | < 5
2 | CC(C)C[C@H](NC(=O)c1ccc(N(C)C)cc1)C(=O)N1CC[C@@H]2[C@H]1C(=O)CN2C(=O)c1ccccc1Cl [Example 72, (3aR,6aS)-N-{(1S)-1-[4-(2-Chloro-benzoyl)-6-oxo-hexahydro-pyrrolo[3,2-b]pyrrole-1-carbonyl)-3-methyl-butyl}-4-dimethylamino-benzamide] | < 5 | < 5
3 | CC(C)C[C@H](NC(=O)c1ccc(N(C)C)cc1)C(=O)N1CC[C@@H]2[C@H]1C(=O)CN2C(=O)c1ccncc1 [Example 82, (3aR,6aS)-4-Dimethylamino-N-{(1S)-3-methyl-1-[6-oxo-4-(pyridinecarbonyl)-hexahydro-pyrrolo[3,2-b]pyrrole-1-carbonyl]-butyl}-benzamide] | < 5 | < 5
4 | CC(C)C[C@H](NC(=O)c1ccc(N(C)C)cc1)C(=O)N1CC[C@@H]2[C@H]1C(=O)CN2C(=O)c1cccs1 [Example 95, (3aR,6aS)-4-Dimethylamino-N-{(1S)-3-methyl-1-[6-oxo-4-(thiophene-2-carbonyl)-hexahydro-pyrrolo[3,2-b]pyrrole-1-carbonyl]-butyl}-benzamide] | < 5 | < 5
5 | CC(C)C[C@H](NC(=O)c1ccc(N(C)C)cc1)C(=O)N1CC[C@@H]2[C@H]1C(=O)CN2C(=O)c1ccco1 [Example 96, (3aR,6aS)-4-Dimethylamino-N-{(1S)-1-[4-(furan-2-carbonyl)-6-oxo-hexahydro-pyrrolo[3,2-b]pyrrole-1-carbonyl]-3-methyl-butyl}-benzamide] | < 5 | < 5
6 | CC(C)C[C@H](NC(=O)c1ccc(N(C)C)cc1)C(=O)N1CC[C@@H]2[C@H]1C(=O)CN2C(=O)c1ccoc1 [Example 97, (3aR,6aS)-4-Dimethylamino-N-{(1S)-1-[4-(furan-3-carbonyl)-6-oxo-hexahydro-pyrrolo[3,2-b]pyrrole-1-carbonyl]-3-methyl-butyl}-benzamide] | < 5 | < 5
7 | CC(C)C[C@H](NC(=O)c1ccc(N(C)C)cc1)C(=O)N1CC[C@@H]2[C@H]1C(=O)CN2C(=O)c1cc2ccccc2s1 [Example 100, (3aR,6aS)-N-{(1S)-1-[4-(Benzo[b]thiophene-2-carbonyl)-6-oxo-hexahydro-pyrrolo[3,2-b]pyrrole-1-carbonyl)-3-methyl-butyl}-4-dimethylamino-benzamide] | < 5 | < 5
8 | CC(C)C[C@H](NC(=O)c1ccc(N(C)C)cc1)C(=O)N1CC[C@@H]2[C@H]1C(=O)CN2C(=O)c1cc2ccccc2o1 [Example 101, (3aR,6aS)-N-{(1S)-1-[4-(Benzofuran-2-carbonyl)-6-oxo-hexahydro-pyrrolo[3,2-b]pyrrole-1-carbonyl]-3-methyl-butyl}-4-dimethylamino-benzamide] | < 5 | < 5
9 | CC(C)CCC(=O)N1CC(=O)[C@@H]2[C@H]1CCN2C(=O)[C@H](CC(C)C)NC(=O)c1ccc(N(C)C)cc1 [Example 105, (3aR,6aS)-4-Dimethylamino-N-{(1S)-3-methyl-1-[4-(4-methyl-pentanoyl)-6-oxo-hexahydro-pyrrolo[3,2-b]pyrrole-1-carbonyl]-butyl}-benzamide] | < 5 | < 5
10 | Cc1ccc(C(=O)N2CC(=O)[C@@H]3[C@H]2CCN3C(=O)[C@H](CC(C)C)NC(=O)c2ccc(N(C)C)cc2)cc1C [Example 114, (3aR,6aS)-4-Dimethylamino-N-{(1S)-1-[4-(3,4-dimethyl-benzoyl)-6-oxo-hexahydro-pyrrolo[3,2-b]pyrrole-1-carbonyl]-3-methyl-butyl}-benzamide] | < 5 | < 5
11 | Cc1cc(C(=O)N2CC(=O)[C@@H]3[C@H]2CCN3C(=O)[C@H](CC(C)C)NC(=O)c2ccc(N(C)C)cc2)ccc1F [Example 115, (3aR,6aS)-4-Dimethylamino-N-{(1S)-1-[4-(4-fluoro-3-methyl-benzoyl)-6-oxo-hexahydro-pyrrolo[3,2-b]pyrrole-1-carbonyl]-3-methyl-butyl}-benzamide] | < 5 | < 5
12 | CC(C)C[C@H](NC(=O)c1ccc(N(C)C)cc1)C(=O)N1CC[C@@H]2[C@H]1C(=O)CN2C(=O)c1ccc(F)c(F)c1 [Example 116, (3aR,6aS)-N-{(1S)-1-[4-(3,4-Difluoro-benzoyl)-6-oxo-hexahydro-pyrrolo[3,2-b]pyrrole-1-carbonyl]-3-methyl-butyl}-4-dimethylamino-benzamide] | < 5 | < 5
13 | CCCCC(=O)N1CC(=O)[C@@H]2[C@H]1CCN2C(=O)[C@H](CC(C)C)NC(=O)c1ccc(N(C)C)cc1 [Example 128, (3aR,6aS)-4-Dimethylamino-N-[(1S)-3-methyl-1-(6-oxo-4-pentanoyl-hexahydro-pyrrolo[3,2-b]pyrrole-1-carbonyl)-butyl]-benzamide] | < 5 | < 5
14 | CC(C)CC(=O)N1CC(=O)[C@@H]2[C@H]1CCN2C(=O)[C@H](CC(C)C)NC(=O)c1ccc(N(C)C)cc1 [Example 130, (3aR,6aS)-4-Dimethylamino-N-{(1S)-3-methyl-1-[4-(3-methyl-butyryl)-6-oxo-hexahydro-pyrrolo[3,2-b]pyrrole-1-carbonyl]-butyl}-benzamide] | < 5 | < 5
15 | CC(C)C[C@H](NC(=O)c1ccc(N(C)C)cc1)C(=O)N1CC[C@@H]2[C@H]1C(=O)CN2C(=O)CC1CC1 [Example 132, (3aR,6aS)-N-{(1S)-1-[4-(2-Cyclopropyl-acetyl)-6-oxo-hexahydro-pyrrolo[3,2-b]pyrrole-1-carbonyl]-3-methyl-butyl}-4-dimethylamino-benzamide] | < 5 | < 5
16 | CC(C)C[C@H](NC(=O)c1ccc(N(C)C)cc1)C(=O)N1CC[C@@H]2[C@H]1C(=O)CN2C(=O)C1CCCC1 [Example 134, (3aR,6aS)-N-[(1S)-1-(4-Cyclopentanecarbonyl-6-oxo-hexahydro-pyrrolo[3,2-b]pyrrole-1-carbonyl)-3-methyl-butyl]-4-dimethylamino-benzamide] | < 5 | < 5
17 | CCCCCCC(=O)N1CC(=O)[C@@H]2[C@H]1CCN2C(=O)[C@H](CC(C)C)NC(=O)c1ccc(N(C)C)cc1 [Example 136, (3aR,6aS)-4-Dimethylamino-N-[(1S)-1-(4-heptanoyl-6-oxo-hexahydro-pyrrolo[3,2-b]pyrrole-1-carbonyl)-3-methyl-butyl]-benzamide] | < 5 | < 5
18 | CC(C)C[C@H](NC(=O)c1ccc(N(C)C)cc1)C(=O)N1CC[C@@H]2[C@H]1C(=O)CN2C(=O)CC1CCCCC1 [Example 137, (3aR,6aS)-N-{(1S)-1-[4-(2-Cyclohexyl-acetyl)-6-oxo-hexahydro-pyrrolo[3,2-b]pyrrole-1-carbonyl]-3-methyl-butyl}-4-dimethylamino-benzamide] | < 5 | < 5
